Assay [1] deals with T1, recombinant ARS1 (Sorghum bicolor, UniProt C5Y4Z2). The assay can be described thus: Steady-state kinetics with [2-14C]-malonyl-CoA, TLC/phosphor imaging. Particulars: for Km: same conditions as kcat; for kcat: starter kinetics: 40 μM [2-14C]-malonyl-CoA, 1.43-10 μM starter, malonyl-CoA kinetics: 25 μM palmitoleoyl-CoA starter, pH 7.0, 30° C., 5 min. The format is biochemical. The procedure:
(§1) Enzyme assays, performed in triplicate, for starter unit CoA kinetics contained 100 mM potassium phosphate buffer (pH 7.0), 40 μM [2-^14C]-malonyl-CoA (50-60 mCi/mmol, 1.85-2.22 GBq/mmol; American Radiolabeled Chemicals, Inc., St. Louis, Mo.), 1.43-10 μM starter unit (e.g., palmitoyl-CoA), and 0.75 μg protein in a 200 μL volume at 30° C. for 5 min. Enzyme assays for malonyl-CoA kinetics contained 100 mM potassium phosphate buffer (pH 7.0), 1.66-25 μM [2-^14C]-malonyl-CoA, 25 μM starter unit (palmitoleoyl-CoA), and 0.75 μg protein in a 200 μL volume at 30° C. for 5 min. Reactions were quenched by addition of 10 μL of 20% HCl. The products were extracted as described above, and were separated by thin layer chromatography (silica gel 60 F254; chloroform:ethyl acetate=70:30; 15 min). Product detection and formation was quantified through the use of the Cyclone storage phosphor system and OptiQuant 3.0 image analysis software (PerkinElmer, Wellesley, Mass.). Data were fit to the Michaelis-Menten equation using the Sigma Plot 9.01 enzyme kinetics module (Systat, Inc., San Jose, Calif.).

Assay [2] addresses T2, recombinant ARS2 (Sorghum bicolor, UniProt C5YRS1). Described as above. The format is biochemical. Particulars: for Km: same conditions as kcat; for kcat: starter kinetics: 40 μM [2-14C]-malonyl-CoA, 1.43-10 μM starter, malonyl-CoA kinetics: 25 μM palmitoleoyl-CoA starter, pH 7.0, 30° C., 5 min. As to the method:
as §1

The target of assay [3] is T2, recombinant ARS2. The assay can be described thus: Polyketide synthase enzyme assay, 5-alkylresorcinol formation (GC-MS, m/z 268). The format is biochemical. Particulars: for activity as starter unit (in words): malonyl-CoA extender. As to the method: (§2) Reactions were quenched by addition of 10 μL of 20% HCl, and products were extracted by phase partitioning with 1 ml of ethyl acetate. The organic phase (upper layer) obtained by centrifugation at ˜14,000×g for 1 min was transferred to a fresh tube, dried under vacuum, and subsequently analyzed by GC-EI-MS as a trimethysilyl (TMS) derivative.
(§3) Reactions were quenched by addition of 10 μL of 20% HCl. The products were extracted as described above, and were separated by thin layer chromatography (silica gel 60 F254; chloroform:ethyl acetate=70:30; 15 min). Product detection and formation was quantified through the use of the Cyclone storage phosphor system and OptiQuant 3.0 image analysis software (PerkinElmer, Wellesley, Mass.).
(§4) Recombinant enzyme studies were next performed to examine substrate preferences for the 3 putative type III PKS enzymes maximally expressed in root hairs. […] Acyl-CoAs varying in length and degree of saturation were tested in enzymatic assays with all three recombinant enzymes, as well as the non-linear starter units benzoyl-CoA, isovaleryl-CoA, and isobutryl-CoA used by several other plant type III PKS enzymes (Austin and Noel, supra).

For a further assay, the system named is recombinant Os05g12180. The assay can be described thus: Polyketide synthase enzyme assay, alkylresorcinol synthase activity. The format is biochemical, Oryza sativa. As to the method:
(§5) Polyketide synthase enzyme assays, performed in triplicate, contained 100 mM potassium phosphate buffer (pH 7.0), 40 μM malonyl-CoA, 25 μM starter unit (e.g., palmitoyl-CoA), and 2 μg protein in a 200 μL volume at 30° C. for 15 min. […] Reactions were quenched by addition of 10 μL of 20% HCl, and products were extracted by phase partitioning with 1 ml of ethyl acetate. The organic phase (upper layer) obtained by centrifugation at ˜14,000×g for 1 min was transferred to a fresh tube, dried under vacuum, and subsequently analyzed by GC-EI-MS as a trimethysilyl (TMS) derivative. Product formation was quantified using selective ion monitoring at m/z 268, a fragment ion common to all alkylresorcinols, generated by benzylic cleavage of the alkyl side chain. The identification of the m/z 268 [(5-methyl-1,3 phenylene)bis(oxy)bis(TMS)]^+ base ion and the parent [M]^+ provide confirmation of the 5-alkylresorcinolic structure as well as the length and degree of saturation of the associated side chain (Occolowitz, 1964. Anal. Chem. 36:2177-2181; Suzuki et al. 1996, supra; Suzuki at al. 2003, supra).
as §1
(§6) To explore this possibility, the predicted open reading frames encoded by O. sativa (cv. Nipponbare) LOC_Os05g12180, LOC_Os10g08620, and LOC_Os10g07040, were also expressed in E. coli as N-terminal polyhistidine fusions, and tested for alkylresorcinol synthase activity with the same panel of fatty acyl-CoA substrates used for recombinant ARS1 and ARS2 enzymatic studies (FIG. 4).

The test system of a further assay is recombinant Os10g08620. Described as above. The format is biochemical, Oryza sativa. As to the method: as §5, §1, §6
Another assay has as its system recombinant Os10g07040. The assay is described as above. The format is biochemical, Oryza sativa. The procedure:
as §5, §1, §6

In assay [4] the target is T1, recombinant ARS1. The assay is described as follows: Polyketide synthase enzyme assay, 5-alkylresorcinol formation (GC-MS, m/z 268). The format is biochemical. Conditions: for activity as starter unit (in words): malonyl-CoA extender. As to the method:
as §2, §3, §4

Setting [5] is: 25 μM starter unit, 40 μM malonyl-CoA, pH 7.0, 30° C., 15 min.

Experimental findings from patent publication US9248145B2, “Two alkylresorcinol synthase genes from sorghum; cloning, expression, transformation and characterization” (The United States of America, as represented by The …, priority 2010, dated 2016) are described below.

Usually Km stands for the concentration of substrate that gives half-maximal velocity. What is called kcat is the number of substrate molecules converted per active site and unit of time at saturation.

T2 sequence (C5YRS1 entry or part of it): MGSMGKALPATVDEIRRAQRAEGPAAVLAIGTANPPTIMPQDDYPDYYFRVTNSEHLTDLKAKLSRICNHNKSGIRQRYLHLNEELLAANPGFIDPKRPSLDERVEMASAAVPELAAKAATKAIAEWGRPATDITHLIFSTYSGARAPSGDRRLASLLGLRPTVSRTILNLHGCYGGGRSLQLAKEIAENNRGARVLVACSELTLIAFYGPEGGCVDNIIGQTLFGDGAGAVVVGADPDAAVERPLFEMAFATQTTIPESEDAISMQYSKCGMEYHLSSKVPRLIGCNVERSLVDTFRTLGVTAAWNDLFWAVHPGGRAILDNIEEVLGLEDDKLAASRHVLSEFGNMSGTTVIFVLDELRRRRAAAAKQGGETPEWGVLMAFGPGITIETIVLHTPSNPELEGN
T1 sequence (C5Y4Z2 entry or part of it): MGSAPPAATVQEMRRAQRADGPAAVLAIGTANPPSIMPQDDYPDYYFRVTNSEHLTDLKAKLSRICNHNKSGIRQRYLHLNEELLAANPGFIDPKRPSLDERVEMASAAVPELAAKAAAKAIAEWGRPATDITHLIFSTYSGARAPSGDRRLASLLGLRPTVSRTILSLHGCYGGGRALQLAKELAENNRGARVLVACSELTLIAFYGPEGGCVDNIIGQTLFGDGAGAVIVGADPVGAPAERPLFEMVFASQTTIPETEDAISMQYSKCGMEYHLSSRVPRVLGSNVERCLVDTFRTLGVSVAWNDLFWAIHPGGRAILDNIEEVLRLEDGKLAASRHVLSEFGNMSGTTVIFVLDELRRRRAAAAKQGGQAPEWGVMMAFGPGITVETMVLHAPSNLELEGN

Take `CCCCCCCCCCCCCCCC(=O)SCCNC(=O)CCNC(=O)[C@H](O)C(C)(C)COP(=O)(O)OP(=O)(O)OC[C@H]1O[C@@H](n2cnc3c(N)ncnc32)[C@H](O)[C@@H]1OP(=O)(O)O` [C16:0-CoA, palmitoyl-CoA]: the Km at recombinant ARS1 [1] came to 2.3 µM; at recombinant ARS2 [2] it was 4.1 µM. Moreover, the results for the kcat on recombinant ARS1 [1] and at recombinant ARS2 [2] were 0.0132 s⁻¹ and 0.0183 s⁻¹, respectively.
On to `CCCCCC/C=C\CCCCCCCC(=O)SCCNC(=O)CCNC(=O)[C@H](O)C(C)(C)COP(=O)(O)OP(=O)(O)OC[C@H]1O[C@@H](n2cnc3c(N)ncnc32)[C@H](O)[C@@H]1OP(=O)(O)O` [C16:1-CoA, palmitoleoyl-CoA], for which, on recombinant ARS1 [1], the Km stood at 2.3 µM and the turnover number (kcat) came to 0.0183 s⁻¹. On recombinant ARS2 [2], the Km was found to be 3.6 µM and the kcat came out at 0.0233 s⁻¹. Besides, the “maximal 5-alkylresorcinol-forming activity” value at recombinant ARS2 [3] (setting [5]) came to 60.1 pkat mg^1.
As for `CC(C)(COP(=O)(O)OP(=O)(O)OC[C@H]1O[C@@H](n2cnc3c(N)ncnc32)[C@H](O)[C@@H]1OP(=O)(O)O)[C@@H](O)C(=O)NCCC(=O)NCCSC(=O)CC(=O)O` [Malonyl-CoA, malonyl-CoA], at recombinant ARS1 [1], the Km was found to be 5.2 µM and the catalytic constant (kcat) amounted to 0.0148 s⁻¹. Moreover, on recombinant ARS2 [2], the Km was 5.8 µM and the kcat came out at 0.0123 s⁻¹.
Take `CCCCC/C=C\C/C=C\C/C=C\C/C=C\CCCC(=O)SCCNC(=O)CCNC(=O)[C@H](O)C(C)(C)COP(=O)(O)OP(=O)(O)OC[C@H]1O[C@@H](n2cnc3c(N)ncnc32)[C@H](O)[C@@H]1OP(=O)(O)O` [arachidonoyl-CoA]: the “activity as starter unit (in words)” value in the assay with recombinant Os05g12180, in the assay with recombinant Os10g08620 and in the assay with recombinant Os10g07040 was “No activity” each time.
As to `CC(C)(COP(=O)(O)OP(=O)(O)OC[C@H]1O[C@@H](n2cnc3c(N)ncnc32)[C@H](O)[C@@H]1OP(=O)(O)O)[C@@H](O)C(=O)NCCC(=O)NCCSC(=O)c1ccccc1` [benzoyl-CoA], the “activity as starter unit (in words)” value at recombinant ARS1 [4] and on recombinant ARS2 [3] was “No activity” in each case.
In the case of `CCCCCCCC(=O)SCCNC(=O)CCNC(=O)[C@H](O)C(C)(C)COP(=O)(O)OP(=O)(O)OC[C@H]1O[C@@H](n2cnc3c(N)ncnc32)[C@H](O)[C@@H]1OP(=O)(O)O` [capryloyl-CoA], the “triketide pyrone derailment product, share of the total moles product derived from the starter” value (“triketide pyrone derailment product” for short) at recombinant ARS1 [4] is on record as around 33%.
Regarding `C=CC/C=C\C/C=C\CCCCCCCCSCCNC(=O)CCNC(=O)[C@H](O)C(C)(C)COP(=O)(O)OP(=O)(O)OC[C@H]1O[C@@H](n2cnc3c(N)ncnc32)[C@H](O)[C@@H]1OP(=O)(O)O` [hexadecatrienyl-CoA, (9Z,12Z)-Hexadeca-9,12,15-trienyl-CoA], the “activity as starter unit (in words)” value on recombinant ARS1 [4] and at recombinant ARS2 [3] was “utilized” each time.
As for `CCCCCC(=O)SCCNC(=O)CCNC(=O)[C@H](O)C(C)(C)COP(=O)(O)OP(=O)(O)OC[C@H]1O[C@@H](n2cnc3c(N)ncnc32)[C@H](O)[C@@H]1OP(=O)(O)O` [hexanoyl-CoA], the “triketide pyrone derailment product” value at recombinant ARS1 [4] and at recombinant ARS2 [3] was “approximately 9%” in each case. Besides, the “activity as starter unit (in words)” value with recombinant Os05g12180, in the assay with recombinant Os10g08620 and in the assay on recombinant Os10g07040 was “No activity” each time.
For the molecule `CC(C)C(=O)SCCNC(=O)CCNC(=O)[C@H](O)C(C)(C)COP(=O)(O)OP(=O)(O)OC[C@H]1O[C@@H](n2cnc3c(N)ncnc32)[C@H](O)[C@@H]1OP(=O)(O)O` [isobutyryl-CoA], the “activity as starter unit (in words)” value on recombinant ARS1 [4] and on recombinant ARS2 [3] was “No activity” throughout.
With `CC(C)CC(=O)SCCNC(=O)CCNC(=O)[C@H](O)C(C)(C)COP(=O)(O)OP(=O)(O)OC[C@H]1O[C@@H](n2cnc3c(N)ncnc32)[C@H](O)[C@@H]1OP(=O)(O)O` [isovaleryl-CoA], the “activity as starter unit (in words)” value on recombinant ARS1 [4] and on recombinant ARS2 [3] was “No activity” each time.
As to `CCCCCCCCCCCCCC(=O)SCCNC(=O)CCNC(=O)[C@H](O)C(C)(C)COP(=O)(O)OP(=O)(O)OC[C@H]1O[C@@H](n2cnc3c(N)ncnc32)[C@H](O)[C@@H]1OP(=O)(O)O` [myristoyl-CoA], the entries for the “triketide pyrone derailment product” value at recombinant ARS1 [4] and on recombinant ARS2 [3] were around 15% and below 5%, respectively. Moreover, the “maximal 5-alkylresorcinol-forming activity” value on recombinant ARS1 [4] (setting [5]) is 81.0 pkat mg^−1.
